Measured values taken from BindingDB's records for doi:10.7270/Q2Z899TZ (Columbia University Molecular Screening Center, 2007).

Target: T1, Tyrosine-protein phosphatase non-receptor type 22 (Homo sapiens, UniProt Q9Y2R2)
T1 sequence (Q9Y2R2 whole entry): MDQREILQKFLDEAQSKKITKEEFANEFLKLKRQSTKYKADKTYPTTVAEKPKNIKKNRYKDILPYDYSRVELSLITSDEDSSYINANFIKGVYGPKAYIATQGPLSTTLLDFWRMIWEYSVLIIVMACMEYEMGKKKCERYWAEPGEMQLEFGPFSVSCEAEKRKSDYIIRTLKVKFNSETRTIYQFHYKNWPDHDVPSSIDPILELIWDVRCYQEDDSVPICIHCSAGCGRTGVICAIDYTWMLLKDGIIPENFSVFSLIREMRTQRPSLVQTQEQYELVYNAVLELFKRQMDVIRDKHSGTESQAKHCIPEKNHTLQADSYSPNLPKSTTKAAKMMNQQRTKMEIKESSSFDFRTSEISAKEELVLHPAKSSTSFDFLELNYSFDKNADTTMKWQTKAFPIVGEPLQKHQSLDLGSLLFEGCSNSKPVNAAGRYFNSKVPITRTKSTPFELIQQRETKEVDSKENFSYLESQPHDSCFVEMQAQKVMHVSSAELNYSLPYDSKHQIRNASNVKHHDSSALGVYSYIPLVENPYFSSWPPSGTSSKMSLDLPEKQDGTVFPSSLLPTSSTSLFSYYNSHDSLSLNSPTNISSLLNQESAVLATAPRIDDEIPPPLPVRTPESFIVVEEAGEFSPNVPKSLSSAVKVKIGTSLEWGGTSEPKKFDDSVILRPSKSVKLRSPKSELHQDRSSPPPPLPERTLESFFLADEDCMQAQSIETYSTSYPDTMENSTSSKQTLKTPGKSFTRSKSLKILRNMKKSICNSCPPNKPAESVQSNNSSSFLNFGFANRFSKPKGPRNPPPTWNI
Experiment: LYP phosphatase inhibitors, primary screen, biochemical, DiFMUP fluorescence, recombinant catalytic domain, 10 µM (AID 606)

| SMILES | IC50 |
| --- | --- |
| Cc1ccc2c(c1C)NC(C(=O)O)C1CC=CC21 (stereo unspecified) | 940 nM |
| CCn1nc(-c2ccccc2)nc2c(=O)n(C)c(=O)nc1-2 [1-Ethyl-6-methyl-3-phenyl-1H-pyrimido[5,4-e][1,2,4]triazine-5,7-dione] | 1660 nM |
| CC(C)Cn1c(N)c(C(=O)COC(=O)c2cc(-c3ccco3)nc3ccccc23)c(=O)n(C)c1=O [2-(2-furanyl)-4-quinolinecarboxylic acid [2-[4-amino-1-methyl-3-(2-methylpropyl)-2,6-dioxo-5-pyrimidinyl]-2-oxoethyl] ester] | 5810 nM |
| CCCCC[C@H](O)C=C[C@H]1C=CC(=O)[C@@H]1C/C=C\CCCC(=O)O [(Z)-7-[(1R,5S)-2-oxidanylidene-5-[(E,3S)-3-oxidanyloct-1-enyl]cyclopent-3-en-1-yl]hept-5-enoic acid] | 6690 nM |
| O=C1C=Cc2ccccc2/C1=C/NC12CN3CCN(CN(C3)C1)C2 [MLS000071484] | > 40000 nM |
| COc1ccc(Cn2c(C)nc3c(c2=O)c2nc4ccccc4nc2n3Cc2ccco2)cc1 [MLS000079944] | 1780 nM |
